Laboratory results: patent EP0123446A1, “2-Furylbutyrolactone derivatives, their preparation, compositions containing them, and their use for the modulation of the immune system in mammals” (NATIONAL FOUNDATION FOR CANCER RESEARCH, INC., priority 1983, dated 1984)

How the values were obtained:
spleen lymphocytes [1] = assay: In vitro lymphocyte stimulation assay, C57BL/6 spleen lymphocytes; type: cell-based, mice; details: for effect on response of the lymphocytes to PHA and Con-A: C57BL/6 spleen cells in vitro, Example 19
Procedure: (§1) The purpose of this assay is to challange lymphocytes in microcultures with one or more polyclonal mitogens at concentrations that will induce mitogenesis within 72 hours of stimulation.
(§2) In the mouse model, spleens were removed from different strains of mice and the spleen cells were teased free and suspended in RPMI-1640 tissue culture medium at a concentration of usually 1 x 10^7 ml. These cells were dispensed at a concentration of […] cells per microculture well in a 96 well flat bottom tissue culture plate. All testing of the compounds of this invention or mitogens were done in replicates of 10. The cells were then treated with PHA. Con-A, specific antigens, or buffer only. Where in vitro testing was done, varying concentrations of the compounds of this invention or buffer only were added to the cells as well. After treatment with the mitogens and/or compounds of this invention, the cells were incubated for 72 hours. The response of these cells to mitogens and/or the compounds of this invention was assessed using 14 C-thymidine labeling on the fourth day at a concentration of 0.01 microCi/well. The labeled cells were harvested using a lymphocyte harvestor and placed onto fibrous paper discs. A scintillation cocktail was added to vials containing the discs and the results were obtained using a LKB-liquid scintillation counter (Model 1216/Rackbeta II). The data is expressed as a ratio of the cpm (counts per minute) of the mitogen stimulated group to the control (non-mitogen) treated group = lymphocyte stimulation index (LSI).
(§3) The lymphocyte stimulation assay may be performed directly on spleen cells obtained from various strains of mice not treated with the compounds of this invention or on lymphocytes obtained from human plasma. In such experiments, the compounds of this invention were added directly to the spleen lymphcytes in vitro and the assay was completed and results interpreted. Alternatively. the mice may be treated in vivo with the compounds of this invention by intraperitoneal multi-dose schedules, followed by sacrifice and harvesting spleen lymphocytes. These cells were then tested for their response to polyclonal mitogens or specific antigens used to immunize the mice. In this system however, no additional compound was added to the in vitro lymphocyte stimulation assay system.

L-1210 leukaemia cells = assay: L-1210 leukaemia anti-cancer study (NCI protocol), BDF1 mice; type: in vivo; details: 20 mg/kg, seven days, Table 25
Description: Mice of the BDF1 strain were given an i.p. inoculation of 10^6 L-1210 leukaemia cells on day 0. Twenty-four hours later, groups of 7 mice each were started on a […] treatment regimen of various doses of the compounds of this invention. The experiment was continued according to the guidelines provided under the National Cancer Institute protocol for screening new anti-cancer agents; T/C ratios (median or mean survival time of treated groups over median or mean survival time of controls) were calculated. A T/C value > 1.25 (or 125%) is considered to indicate significant anticancer activity.
Mice of the BDF1 strain, inoculated with L-1210 leukaemia cells, were treated for seven days with either 25, 50, 100, 200 or 400 mg/kg of Cpd. 1 or just buffer. The National Cancer Institute protocol for screening new anti-cancer agents was followed and T/C ratios were calculated.
Mice of the BDFI strain, inoculated with L-1210 leukaemia cells, were treated for seven days with either 100 mg/kg of Cpd. 1, 20 mg/kg of 5-fluorouracil (5-FU), a known anti-cancer agent, or just buffer. The National Cancer Institute protocol for screening new anti-cancer agents was followed and T/C ratios are calculated.

spleen lymphocytes [2] = assay: Lymphocyte stimulation assay after in vivo treatment, C57BL/6 mice; details: for Lymphocyte Stimulation Index Con-A / Lymphocyte Stimulation Index Control / Lymphocyte Stimulation Index PHA: C57BL/6, Table 3-A
Procedure: as §1, §2, §3

human lymphocytes = assay: In vitro lymphocyte stimulation assay, human lymphocytes; type: cell-based; set-up: key to Lymphocyte Stimulation Index PHA / Lymphocyte Stimulation Index Con-A: ratio of cpm of mitogen-stimulated to non-mitogen control group (LSI); details: for Lymphocyte Stimulation Index Con-A / Lymphocyte Stimulation Index PHA: human, Table 6-A
Procedure: as §1, §2, §3
Lymphocytes isolated from 5 human volunteers were treated in vitro with PHA and Con-A and either 10^2, 10^3, 10^4, 5 x 10^4 or 10^5 ng/well of Cpd. 1, 10^2, 10^3, 10^4, 5 x 10^4, or 10^5 ng/well of AA, or buffer.

[3] = 1.04x10^3 ng/well in vitro, C57BL/6, Table 12-A
[4] = 1.66x10^4 ng/well in vitro, C57BL/6, Table 12-A
[5] = 2.08x10^3 ng/well in vitro, C57BL/6, Table 12-A
[6] = 4.15x10^3 ng/well in vitro, C57BL/6, Table 12-A
[7] = 8.3x10^3 ng/well in vitro, C57BL/6, Table 12-A
[8] = 1.392x10^4 ng/well, C57BL/6, Table 12-B
[9] = 1.74x10^3 ng/well, C57BL/6, Table 12-B
[10] = 3.48x10^3 ng/well, C57BL/6, Table 12-B
[11] = 6.96x10^3 ng/well, C57BL/6, Table 12-B
[12] = 8.7x10^2 ng/well, C57BL/6, Table 12-B

In the case of `O=C(O)CCC(=O)O` [Succinic Acid, succinic acid], the “Lymphocyte Stimulation Index Con-A” value (spleen lymphocytes [1]; [3]) is reported as 64.6, the “Lymphocyte Stimulation Index Control” value (spleen lymphocytes [1]; [3]) is reported as 0.94 and the “Lymphocyte Stimulation Index PHA” value (spleen lymphocytes [1]; [3]) is reported as 15.7. For the same molecule, the “Lymphocyte Stimulation Index Con-A” value (spleen lymphocytes [1]; [4]) was 38.5, the “Lymphocyte Stimulation Index Control” value (spleen lymphocytes [1]; [4]) was 1.1 and the “Lymphocyte Stimulation Index PHA” value (spleen lymphocytes [1]; [4]) was 11.5. For the same molecule, the “Lymphocyte Stimulation Index Con-A” value (spleen lymphocytes [1]; [5]) was 51.1, the “Lymphocyte Stimulation Index Control” value (spleen lymphocytes [1]; [5]) was 1.0 and the “Lymphocyte Stimulation Index PHA” value (spleen lymphocytes [1]; [5]) was 15.3. For the same molecule, the “Lymphocyte Stimulation Index Con-A” value (spleen lymphocytes [1]; [6]) was 42.3, the “Lymphocyte Stimulation Index Control” value (spleen lymphocytes [1]; [6]) was 0.91 and the “Lymphocyte Stimulation Index PHA” value (spleen lymphocytes [1]; [6]) was 14.0. The “Lymphocyte Stimulation Index Con-A” value (spleen lymphocytes [1]; [7]) was 35.6, the “Lymphocyte Stimulation Index Control” value (spleen lymphocytes [1]; [7]) was 0.91 and the “Lymphocyte Stimulation Index PHA” value (spleen lymphocytes [1]; [7]) was 12.4. For the same molecule, the “effect on response of the lymphocytes to PHA and Con-A” value (spleen lymphocytes [1]) was “decrease in PHA and Con-A mitogenesis with increased succinic acid dosage”.
With `O=c1[nH]cc(F)c(=O)[nH]1` [5-FU, 5-fluorouracil] the “Median Survival Time” value (L-1210 leukaemia cells) was 30 and the T/C (L-1210 leukaemia cells) was 1.50.
For `O=C1CCC(=O)N1` [Succinimide, succinimide], the “Lymphocyte Stimulation Index Con-A” value (spleen lymphocytes [1]; [8]) was 92.9, the “Lymphocyte Stimulation Index Control” value (spleen lymphocytes [1]; [8]) was 1.4 and the “Lymphocyte Stimulation Index PHA” value (spleen lymphocytes [1]; [8]) was 17.1. For the same molecule, the “Lymphocyte Stimulation Index Con-A” value (spleen lymphocytes [1]; [9]) was 83.4, the “Lymphocyte Stimulation Index Control” value (spleen lymphocytes [1]; [9]) was 1.1 and the “Lymphocyte Stimulation Index PHA” value (spleen lymphocytes [1]; [9]) was 17.5. For the same molecule, the “Lymphocyte Stimulation Index Con-A” value (spleen lymphocytes [1]; [10]) was 85.1, the “Lymphocyte Stimulation Index Control” value (spleen lymphocytes [1]; [10]) was 0.98 and the “Lymphocyte Stimulation Index PHA” value (spleen lymphocytes [1]; [10]) was 18.1. For the same molecule, the “Lymphocyte Stimulation Index Con-A” value (spleen lymphocytes [1]; [11]) was 71.9, the “Lymphocyte Stimulation Index Control” value (spleen lymphocytes [1]; [11]) was 1.1 and the “Lymphocyte Stimulation Index PHA” value (spleen lymphocytes [1]; [11]) was 17.2. For the same molecule, the “Lymphocyte Stimulation Index Con-A” value (spleen lymphocytes [1]; [12]) was 76.0, the “Lymphocyte Stimulation Index Control” value (spleen lymphocytes [1]; [12]) was 0.91 and the “Lymphocyte Stimulation Index PHA” value (spleen lymphocytes [1]; [12]) was 19.5. For the same molecule, the “effect on response of the lymphocytes to PHA and Con-A” value (spleen lymphocytes [1]) was “no significant suppressive or enhancing effect”.
`O=C1O[C@H]([C@@H](O)CO)C(O)=C1O` [AA, ascorbic acid] was tested, and the “effect on lymphocyte response, Con-A stimulated group” value (spleen lymphocytes [2]; 50 mg/kg i.p. 4 days, C57BL/6) was “single stimulation of proliferation”, the “Lymphocyte Stimulation Index Con-A” value (spleen lymphocytes [2]; 50 mg/kg i.p. 4 days) was 25.5 and the “Lymphocyte Stimulation Index Control” value (spleen lymphocytes [2]; 50 mg/kg i.p. 4 days) was 0.56. For the same molecule, the “Lymphocyte Stimulation Index PHA” value (spleen lymphocytes [2]; 50 mg/kg i.p. 4 days) was 17.1, the “Lymphocyte Stimulation Index Con-A” value (spleen lymphocytes [2]; 100 mg/kg i.p. 4 days) was 19.8 and the “Lymphocyte Stimulation Index Control” value (spleen lymphocytes [2]; 100 mg/kg i.p. 4 days) was 1.8. The “Lymphocyte Stimulation Index PHA” value (spleen lymphocytes [2]; 100 mg/kg i.p. 4 days) was 17.1, the “Lymphocyte Stimulation Index Con-A” value (spleen lymphocytes [2]; 200 mg/kg i.p. 4 days) was 21.1 and the “Lymphocyte Stimulation Index Control” value (spleen lymphocytes [2]; 200 mg/kg i.p. 4 days) was 1.3. For the same molecule, the “Lymphocyte Stimulation Index PHA” value (spleen lymphocytes [2]; 200 mg/kg i.p. 4 days) was 10.0, the “Lymphocyte Stimulation Index Con-A” value (spleen lymphocytes [2]; 400 mg/kg i.p. 4 days) was 17.8 and the “Lymphocyte Stimulation Index Control” value (spleen lymphocytes [2]; 400 mg/kg i.p. 4 days) was 1.3. For the same molecule, the “Lymphocyte Stimulation Index PHA” value (spleen lymphocytes [2]; 400 mg/kg i.p. 4 days) was 14.3, the “Lymphocyte Stimulation Index Con-A” value (spleen lymphocytes [2]; 800 mg/kg i.p. 4 days) was 23.9 and the “Lymphocyte Stimulation Index Control” value (spleen lymphocytes [2]; 800 mg/kg i.p. 4 days) was 0.50. The “Lymphocyte Stimulation Index PHA” value (spleen lymphocytes [2]; 800 mg/kg i.p. 4 days) was 12.1, the “effect on lymphocyte response with PHA” value (spleen lymphocytes [2]; 50-800 mg/kg i.p. 4 days, C57BL/6) was “No statistically significant measureable effect” and the “Lymphocyte Stimulation Index Con-A” value (human lymphocytes; 5x10^4 ng/well in vitro) was 23.31. The “Lymphocyte Stimulation Index PHA” value (human lymphocytes; 5x10^4 ng/well in vitro) was 35.93, the “Lymphocyte Stimulation Index Con-A” value (human lymphocytes; 10^2 ng/well in vitro) was 24.37 and the “Lymphocyte Stimulation Index PHA” value (human lymphocytes; 10^2 ng/well in vitro) was 38.29. The “Lymphocyte Stimulation Index Con-A” value (human lymphocytes; 10^3 ng/well in vitro) was 24.76, the “Lymphocyte Stimulation Index PHA” value (human lymphocytes; 10^3 ng/well in vitro) was 34.69 and the “Lymphocyte Stimulation Index Con-A” value (human lymphocytes; 10^4 ng/well in vitro) was 27.35. The “Lymphocyte Stimulation Index PHA” value (human lymphocytes; 10^4 ng/well in vitro) was 35.10, the “Lymphocyte Stimulation Index Con-A” value (human lymphocytes; 10^5 ng/well in vitro) was 25.18 and the “Lymphocyte Stimulation Index PHA” value (human lymphocytes; 10^5 ng/well in vitro) was 34.23. The “proliferative or anti-proliferative effect, PHA and Con-A” value (human lymphocytes; 10^2 to 10^5 ng/well, human lymphocytes in vitro) was “no significant proliferative or anti-proliferative effect”.
